Reference: paper PMC3519854, “High Yield Production and Refolding of the Double-Knot Toxin, an Activator of TRPV1 Channels” (PLoS ONE, 2012)
Positions of bridges follow the written chain, without caps; N, C: chain ends. Residues, ends and D or L forms follow the SMILES beside them.

How the values were obtained:
rat TRPV1 = target: T1, rat TRPV1 (Rattus norvegicus, UniProt O35433); assay: Two-electrode voltage clamp recording of TRPV1 activation in oocytes; format: cell-based; details: for Relative potency as TRPV1 agonist: comparison of DkTx, K1 and K2, concentration-dependence in oocytes; for Hill coefficient for activation of TRPV1 / Reversibility of TRPV1 activation after removal of the toxin / Activation of TRPV1 channels (evoked currents): rat TRPV1 in Xenopus oocytes; for Hill coefficient for activation of TRPV1: concentration-dependence; for Activation of TRPV1 channels (evoked currents): holding voltage −60 mV, DkTx applied at 1 µM
T1 construct: expressed in transfected cells; host or cells: Xenopus laevis oocytes injected with cRNA (pGEM-HE vector)
Method: (§1) Oocytes were surgically removed from anesthetized Xenopus laevis frogs in accordance with protocol 1253-12 approved by the National Institute of Neurological Disorders and Stroke Animal Care and Use Committee. Oocytes were gently shaken for 60 min in a solution of 82.5 mM NaCl, 2.5 mM KCl, 1 mM MgCl2, 5 mM HEPES and 2 mg/mL collagenase. A rat TRPV1 construct (generously provided by D. Julius, UCSF) was cloned into the pGEM-HE vector, and used to generate cRNA. The cRNA was then injected into oocytes, which were then incubated for 1–3 days at 17°C in ND-96 solution (96 mM NaCl, 2 mM KCl, 5 mM HEPES, 1 mM MgCl2 and 50 µg/mL gentamycin, titrated to pH 7.6 with NaOH). TRPV1 activity was recorded under voltage clamp using a two-electrode voltage clamp (OC-725C; Warner Instruments) in a 150-µL recording chamber. The recorded data were filtered at 1 kHz and digitized at 5 kHz using a digidata analog/digital converter and pClamp software (Molecular Devices). Microelectrode resistances were 0.1–1 MΩ when filled with 3 M KCl. The external recording solution contained 115 mM NaCl, 2.5 mM KCl, 1.5 mM MgCl2 and 10 mM HEPES, titrated to pH 7.4 with NaOH. All experiments were performed at room temperature (∼22°C).
Figure 6 Activity of K1, K2 and DkTx on TRPV1 channels. (A) Synthetic K1, K2 and DkTx activate TRPV1 channels. Oocytes were held at −60 mV and toxins were added to the recording chamber. (B) Concentration-dependence for activation of TRPV1 by the toxins.
(§2) The functional activities of DkTx, K1 and K2 were also compared by recording their electrophysiological effects on TRPV1-expressing cells.

A657P mutant of TRPV1 [1] = assay: Two-electrode voltage clamp recording on the A657P mutant of TRPV1; format: cell-based; details: data not shown
Method: as §1, §2

[2] = Relative hydrophobicity by RP-HPLC elution of folded versus linear toxin; format: physicochemical; details: RP-HPLC C18, acetonitrile/water gradient with 0.1% TFA, qualitative
Method: Figure 3 Purification and activity of the DkTx folding product. (A) Purification of linear DkTx. Cleavage of the fusion protein and reduction of the disulfide bond were accomplished using hydroxylamine and DTT, respectively, as described in methods. (B) Linear DkTx was folded in 1 M NH4OAc (pH 8.0) buffer containing 1 M GdnHCl, 1 mM EDTA, 2.5 mM GSH and 0.25 mM GSSG for 5 days at 4°C. The toxins were purified using a linear gradient of 29–44% solvent B for 15 min at a flow rate of 14 ml/min, where solvent A was water containing 0.1% TFA and solvent B was acetonitrile containing 0.1% TFA. (C) Fraction 5 activated TRPV1 expressed in oocytes. Holding voltage was −60 mV.
Figure 4 HPLC profiles of DkTx during the folding reaction. The peptides were separated using a linear gradient of 5–65% solvent B for 30 min at a flow rate of 1 ml/min, where solvent A was water containing 0.1% TFA and solvent B was acetonitrile containing 0.1% TFA. (A) Oxidative folding of DkTx in redox buffer was monitored by HPLC. Asterisks indicate correctly folded DkTx. (B) HPLC chromatogram of purified DkTx. Dashed and solid arrows indicate the minor and major forms of DkTx, respectively. […]
Figure 5 Folding kinetics of K1, K2 and DkTx. […] Quantification of the folding specifies was accomplished using HPLC. The correctly folded form (%) was determined based on the areas of the HPLC peaks. […]

A657P mutant of TRPV1 [3] = details: cited from earlier work
Excerpt: as §2

T1 sequence (O35433 whole entry): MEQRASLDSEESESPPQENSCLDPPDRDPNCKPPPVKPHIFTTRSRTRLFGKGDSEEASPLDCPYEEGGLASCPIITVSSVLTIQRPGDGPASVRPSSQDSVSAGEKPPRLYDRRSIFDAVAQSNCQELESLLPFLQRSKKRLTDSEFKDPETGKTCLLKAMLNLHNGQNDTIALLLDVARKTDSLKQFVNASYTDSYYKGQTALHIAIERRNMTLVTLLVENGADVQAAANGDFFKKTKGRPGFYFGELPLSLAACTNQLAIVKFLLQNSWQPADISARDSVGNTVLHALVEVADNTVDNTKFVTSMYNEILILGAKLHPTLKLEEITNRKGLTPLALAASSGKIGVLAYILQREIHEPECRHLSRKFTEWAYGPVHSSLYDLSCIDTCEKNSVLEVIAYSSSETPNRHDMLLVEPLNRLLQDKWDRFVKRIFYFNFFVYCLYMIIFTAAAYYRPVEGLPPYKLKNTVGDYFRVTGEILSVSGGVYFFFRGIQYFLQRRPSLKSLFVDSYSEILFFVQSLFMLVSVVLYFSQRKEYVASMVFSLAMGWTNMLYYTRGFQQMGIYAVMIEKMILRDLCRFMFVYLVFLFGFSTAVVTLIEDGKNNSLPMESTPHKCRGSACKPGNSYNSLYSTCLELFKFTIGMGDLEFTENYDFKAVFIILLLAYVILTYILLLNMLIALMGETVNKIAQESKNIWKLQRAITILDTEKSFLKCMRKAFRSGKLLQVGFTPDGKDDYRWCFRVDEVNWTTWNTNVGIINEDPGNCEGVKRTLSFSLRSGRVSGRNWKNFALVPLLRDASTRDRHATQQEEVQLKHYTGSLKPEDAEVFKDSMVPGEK

Row | Compound | Relative potency as TRPV1 agonist (rat TRPV1) | Hill coefficient for activation of TRPV1 (rat TRPV1) | Reversibility of TRPV1 activation after removal of the toxin (rat TRPV1; −60 mV) | Activation of the A657P mutant of TRPV1 (A657P mutant of TRPV1 [1]) | Hydrophobicity of the correctly folded form relative to the linear form [2] | Block of DkTx-evoked TRPV1 currents (rat TRPV1; currents evoked by 1 µM DkTx in oocytes, −60 mV) | Activation of TRPV1 channels (evoked currents) (rat TRPV1) | Activation of TRPV1 channels (evoked currents) (rat TRPV1; listed as fraction 5) | Sensitivity of the A657P mutant of TRPV1 to toxin (A657P mutant of TRPV1 [3])
1 | CC[C@H](C)[C@@H]1NC(=O)[C@H](Cc2ccccc2)NC(=O)[C@H](C)NC(=O)[C@H](CC(C)C)NC(=O)[C@@H]2CCCN2C(=O)[C@@H]2CSSC[C@@H]3NC(=O)[C@H](C(C)C)NC(=O)[C@H](CCC(=O)O)NC(=O)CNC(=O)[C@H](CCC(=O)O)NC(=O)[C@H](CCCCN)NC(=O)[C@H](C)NC(=O)[C@@H](NC(=O)[C@@H](N)CC(N)=O)CSSC[C@H](NC(=O)[C@H](CSSC[C@@H](C(=O)N[C@@H](CCC(=O)O)C(=O)N[C@@H](CCCCN)C(=O)N[C@@H](Cc4ccc(O)cc4)C(=O)N[C@@H](CCCNC(=N)N)C(=O)O)NC(=O)[C@H](Cc4ccc(O)cc4)NC(=O)[C@@H]4CCCN4C1=O)NC(=O)[C@H](CCCCN)NC(=O)[C@H](CO)NC(=O)CNC(=O)[C@H](Cc1c[nH]c4ccccc14)NC(=O)CNC3=O)C(=O)N[C@@H](Cc1c[nH]cn1)C(=O)NCC(=O)N[C@@H](CC(C)C)C(=O)N[C@@H](CC(=O)O)C(=O)N2 [K2] (H-NCAKEGEVCGWGSKCCHGLDCPLAFIPYCEKYR-OH; disulfide 2-16, 9-21, 15-29 (inferred); N-terminus and C-terminus assumed) | more active than K1 | about 4 | readily reversible | neither toxin activated the channel | more hydrophobic than the linear or misfolded forms | – | – | – | –
2 | N.N.N.N.N.N.N.N.N.N.N.N.N.N.[Cl-].[Cl-].[Cl-].[Cl-].[Cl-].[Cl-].[O-2].[O-2].[Ru+3].[Ru+3].[Ru+4] [ruthenium red, reference compound] | – | – | – | – | – | blocked | – | – | –
3 | GDCAKEGEVCSWGKKCCDLDNFYCPMEFIPHCKKYKPYVPVTTNCAKEGEVCGWGSKCCHGLDCPLAFIPYCEKYR (disulfide 3-17, 10-24, 16-32, 45-59, 52-64, 58-72 (inferred)) [DkTx, double-knot toxin] | most potent TRPV1 agonist among the three toxins | ~1 | decayed slowly | – | more hydrophobic than the linear form | – | evoked large currents | robustly activated TRPV1 channels | insensitive
